Results from US5364944A, “Substituted benzoylbenzene-, biphenyl- and 2-oxazole- alkanoic acid compounds” (American Home Products Corporation, priority 1993, dated 1994).
Structures can show the parent of a compound that is named as a salt.

Legend:
LTB4 = experiment: Reverse passive Arthus pleurisy assay, inflammatory mediator release: LTB4; assay type: in vivo, rat (male Lewis)
Method: The compounds of the invention are further tested in the reverse passive Arthus pleurisy assay to evaluate their effectiveness in inflammatory mediator release and/or the fluid and cellular phases of an inflammatory response.
(§1) This assay is carried out as follows:
A reverse passive Arthus reaction is induced in the pleural cavity of male Lewis rats (150-200 g; fasted overnight prior to use) by the intravenous administration of bovine serum albumin (BSA; 4 mg/0.2 ml) followed 30 minutes later by the injection of rabbit anti-BSA (1 mg/0.2 ml; lyophilized IgG fraction; Organon Teknika, West Chester, Pa.) into the right pleural space under halothane anesthesia. […] Animals are sacrificed at either the time of peak eicosanoid production (i.e. 5 minutes after anti-BSA for immunoreactive TxB2 10 minutes for immunoreactive LTB4, 20 minutes for immunoreactive LTC4) or at the time of peak neutrophil infiltration (4 hours after anti-BSA) by CO2 inhalation. The pleural cavity is then exposed, the fluid exudate removed by gentle vacuum aspiration and the volume of exudate is recorded. For the determination of cellular infiltration, the pleural cavity is rinsed with 3 ml of 0.1% EDTA in sterile saline, and the recovered wash is pooled with the exudate. Cell number is determined on a model ZBI Coulter counter. For determination of eicosanoid production, undiluted pleural exudate is microfuged and the supernatant is extracted with ethanol (8-10 times volume). Extracts are either stored at -20° C., or are evaporated to dryness under a stream of N2 and reconstituted in radioimmunoassay (RIA) buffer.
Eicosanoids are quantitated by RIA according to the procedure specified by the RIA kit manufacturer (Advanced Magnetics, Cambridge, Mass.). Briefly, 100 μl of ^3 H-labeled eicosanoid and 100 μl of specific antibody are sequentially added to 100 μl of extracted pleural exudate in BGG -phosphate buffer which contains 0.01 M phosphate, 0.1% bovine gamma globulin and 0.1% sodium azide at pH 7.0. Antibody-bound eicosanoid is separated from unbound eicosanoid by the addition of 750 μl of dextran (0.4%)-coated charcoal (0.4% Norit A) containing 0.1% sodium azide. The mixture is centrifuged at 2000 RPM at 5° C. for 15 minutes to pellet the charcoal and adsorbed unbound eicosanoid. Antibody-bound labeled eicosanoid is quantitated by counting in a liquid scintillation counter, and is correlated to concentration by a standard curve.
Inflammatory cells are expressed as 10^6 cells/ml, pleural exudate is expressed as ml of fluid, and the amount of eicosanoids in the pleural cavity is expressed as ng/ml of exudate. Mean ±S.E.M. is determined for each group. Percent inhibition (% I) of cell number, exudate volume and eicosanoid production is calculated for vehicle-treated control groups, and the responses in drug-treated rats are then expressed as the mean % I of the control. […] Exp. Ther., 96, 99-113 (1949).

[1] = target: T1, LTD4-induced contractions of isolated guinea pig trachea (Cavia porcellus, UniProt Q2NNR5); experiment: In vitro isolated guinea pig trachea assay, LTD4 antagonist activity; design: species or system guinea pig (male Hartley)
T1 construct: isolated guinea pig trachea; from tissue; host or cells: tracheal rings of male Hartley guinea pigs
T1 sequence (Q2NNR5 1-340): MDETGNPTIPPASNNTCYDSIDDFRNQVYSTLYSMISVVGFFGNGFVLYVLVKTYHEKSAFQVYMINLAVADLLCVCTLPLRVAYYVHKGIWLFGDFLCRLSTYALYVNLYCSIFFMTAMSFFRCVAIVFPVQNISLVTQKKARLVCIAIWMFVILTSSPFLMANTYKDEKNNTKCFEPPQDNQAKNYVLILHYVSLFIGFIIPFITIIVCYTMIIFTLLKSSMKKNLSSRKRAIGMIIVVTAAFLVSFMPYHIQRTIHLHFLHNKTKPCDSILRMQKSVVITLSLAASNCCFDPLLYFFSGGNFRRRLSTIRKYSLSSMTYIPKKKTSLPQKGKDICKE
Method: The LTD4 antagonist activity of the compounds of the invention is assessed in the in vitro isolated guinea pig trachea assay. This assay is carried out as follows: Male Hartley guinea pigs (350-400 g) are euthanized by a blow to the head, the neck is opened and the trachea removed. The trachea is maintained in aerated physiological salt solution, cleared of connective tissue and fat and cut into rings approximately 2 mm in width (usually containing two cartilaginous segments per ring). Two pieces of silk suture are then passed through the lumen of the tracheal ting and are tied around the cartilage, one on each side of the trachealis muscle. The tracheal ring is suspended between a glass hook and a force displacement transducer in a 10 ml organ bath for measurement of isometric tension. […] The tracheal rings are maintained at 2 g resting tension and equilibrated for 45 minutes (with frequent washing and readjustment of resting tension). The tracheal […] contracted by the addition of carbachol (3×10^-6 M), to determine tissue responsiveness and establish a reference contraction. On attainment of a stable level of contraction (approximately 30 minutes), the tissues are washed several times until baseline tension has been restored and the re-equilibrated for 30 minutes. The tissues are then incubated for 45 minutes with a test antiagonist (either 1×10^-6 M or 1×10^-5 M) or 10 μl of an appropriate solvent control (control, nontreated). One tissue in each group serves as the control. Twenty minutes prior to the construction of the LTD4 cumulative concentration-response curve, L-[…]×10^-2 M final bath concentration) is added to inhibit bioconversion of LTD4 to LTE4. Only one LTD4 concentration-response curve is constructed in each tissue. All responses to LTD4 in an individual tissue are measured as a percentage of the reference contraction of that tissue to carbachol. LTD4 antagonist activity is determined by comparison of the concentration response curves of LTD4 in the presence and absence of antagonist. Assessment of the relative rightward shift of the antagonist treated curve relative to the solvent (control) treated tissue is calculated as a concentration ratio (Eq. A) and used in subsequent calculations to derive an antagonist pKB value (Eqs. B and C). […] If a compound is found to be active and/or depress the maximal response to LTD4, then a range of concentrations of the test compound should be used generating multiple concentration ratios which would then be used to perform a Schild analysis, and determination of a pA2 value where appropriate.

[2] = system: 5-lipoxygenase in human whole blood; experiment: Inhibition of 5-lipoxygenase in human whole blood (LTB4); assay type: cell-based
Method: The assay of this Example measures the ability of the compounds tested to inhibit 5-lipoxygenase in human whole blood.
as §1
Blood is obtained in 50-100 ml quantities from male donors. White blood cell counts and differentials are made. Two ml of blood are placed in a 15 ml polypropylene test tube. Compounds are solubilized in dimethylsulfoxide and diluted 1:10 in 10% bovine serum albumin in phosphate buffered saline, pH 7.4 resulting in a final dimethylsulfoxide concentration of 0.1% in the blood. Then, compounds are added to the blood in a shaking water bath at 37° C. for 10 minutes prior to the addition of 30 μM calcium ionophore (A23187; Sigma). After ionophore administration, whole blood samples are mixed and incubated for 20 minutes at […] in a shaking water bath. Incubation is terminated by placing samples in an ice bath and immediately adding ethylene glycol-bis-(β-aminoethyl ether)-N,N,N',N'-tetraacetic acid (10 mM). Samples are mixed and centrifuged at 1200×g for 15 minutes at 4° C. Preparation of samples for evaluation by RIA or ELISA is carried out by the following protocol. Plasma is removed from sample tubes, placed in 15 ml polypropylene test tubes containing 8 ml methanol, and then vortexed to precipitate protein. Samples are stored at -70° C. overnight. The next day, samples are centrifuged at 200×g for 15 minutes at 4° C. to pellet the precipitate. Samples are dried in a Savant speed vac concentrator, reconstituted to original volume with ice cold RIA or ELISA buffer, and stored at -70° C. until assayed. The assay for eicosanoids (LTB4, TxB2, and PGE2) is performed as described by the manufacturer of the [^3 H]-RIA kit or ELISA kit (LTB4 -Amersham, TxB2 and PGE2 - Caymen Chemical).
The total eicosanoid level in 2 ml of blood is calculated and reported as ng/10^6 neutrophils. […] Drug effects are expressed as percent change from control values.
Compounds tested in vitro are solubilized in dimethylsulfoxide and diluted 1:10 in 10% bovine serum albumin in phosphate buffer saline resulting in a final dimethylsulfoxide concentration of 0.1% in the blood.

[3] = reference leukotriene antagonists

Row | SMILES | Kb ([1]; 1 × 10^-5 M) [nM] | % Inhibition of LTB4 ([2]; at 10 μM) [%] | other results
1 | O=C(O)Cc1ccccc1Nc1c(Cl)cccc1Cl [Diclofenac, reference compound] |  |  | % Inh LTB4 (LTB4; 10 mg/kg p.o., standard drugs): 0%
2 | O=C(O)CCc1nc(-c2ccc(OCc3ccc4ccccc4n3)cc2)c(-c2ccccc2)o1 [Example 5, 5-Phenyl-4-[4-(2-Quinolinylmethoxy)phenyl]-2-oxazole propanoic acid] | 316 |  | % Inhibition of LTB4 ([2]; at 25 μM): 11%
3 | CN(O)C(=O)Cc1ccc(-c2ccc(OCc3ccc4ccccc4n3)cc2)c(F)c1 [Example 8, N-Hydroxy-N-methyl-2-fluoro-4'-(2-quinolinylmethoxy)-[1,1'-biphenyl]-4-acetamide] |  |  | IC50 [2]: 530 nM; % Inhibition of LTB4 ([2]; at 25 μM): 94%
4 | O=C(O)CCc1nc(-c2ccc(OCc3ccc4ccccc4n3)cc2)c(-c2ccccc2)o1 [Example 10] |  |  | % Inhibition of LTB4 Synthesis (LTB4; 25 mg/kg p.o., 3 hours before challenge): 65%
5 | O=C(Cc1ccc(-c2ccc(OCc3nc4ccccc4s3)cc2)cc1)NO [Example 14, N-Hydroxy-4'-(2-benzothiazolylmethoxy)[1,1'-biphenyl]-4-acetamide] | > 7940 |  | % Inhibition of LTB4 ([2]; at 25 μM): 5%
6 | CN(O)C(=O)Cc1ccc(-c2ccc(OCc3csc(-c4ccccc4)n3)cc2)cc1 [Example 19, N-Hydroxy-N-methyl-4'-[(2-phenylthiazol-4-yl)methoxy][1,1'-biphenyl]-4-acetamide, sodium salt, sesquihydrate] |  |  | % Inhibition of LTB4 ([2]; at 25 μM, sodium salt, sesquihydrate): 83%
7 | CN(O)C(=O)C(Cc1csc(-c2ccccc2)n1)c1ccc(-c2ccc(OCc3csc(-c4ccccc4)n3)cc2)cc1 (stereo not drawn) [Example 25] | > 7940 |  | 
8 | CN(O)C(=O)Cc1ccc(-c2ccc(OCc3csc(-c4ccccc4)n3)cc2)c(F)c1 [Example 27] |  |  | IC50 [2]: 1300 nM; % Inhibition of LTB4 ([2]; at 25 μM): 69%
9 | CN(O)C(=O)Cc1ccc(-c2ccc(OCc3ccccn3)cc2)c(F)c1 [Example 28, 2-Fluoro-N-hyroxy-N-methyl-4'-(2-pyridinylmethoxy)[1,1'-biphenyl]-4-acetamide] | > 3980 | 66 | IC50 [2]: 2300 nM
10 | CN(O)C(=O)Cc1ccc(-c2ccc(OCc3nc4ccccc4n3C)cc2)c(F)c1 [Example 29, 2-[2-Fluoro-4'-(1-methyl-1H-benzimidazol-2-ylmethoxy)biphenyl-4-yl]-N-hydroxy-N-methyl-4-acetamide] | 631 | 74 | IC50 [2]: 700 nM
11 | CC(=O)N(O)C(C)c1ccc(-c2ccc(OCc3nc4ccccc4s3)cc2)cc1 (stereo not drawn) [Example 34, N-{1-[4'-(Benzothiazol-2-ylmethoxy)-biphenyl4-yl]-ethyl}-N-hydroxy-acetamide] | > 10000 | 36 | 
12 | CC(c1ccc(-c2ccc(OCc3nc4ccccc4o3)cc2)cc1)N(O)C(N)=O (stereo not drawn) [Example 35] | > 5010 | 51 | 
13 | CC(=O)N(O)C(C)c1ccc(-c2ccc(OCc3nc4ccccc4o3)cc2)cc1 (stereo not drawn) [Example 36, N-{1-[4'-(Benzoxazol-2-ylmethoxy)-biphenyl-4-yl]ethyl}-N-hydroxy-acetamide] |  | 77 | 
14 | CC(=O)N(O)C(C)c1ccc(-c2ccc(OCc3nc4ccccc4n3C)cc2)cc1 (stereo not drawn) [Example 37] | > 3160 | 61 | 
15 | CC(c1ccc(-c2ccc(OCc3csc(-c4ccccc4)n3)cc2)cc1)N(O)C(N)=O (stereo not drawn) [Example 38, 1-{1-[4'-(2-Phenylthiazol-4-ylmethoxy)-biphenyl4-yl]-ethyl}-1-hydroxy-urea] |  | 46 | 
16 | CC(=O)N(O)C(C)c1ccc(-c2ccc(OCc3csc(-c4ccccc4)n3)cc2)cc1 (stereo not drawn) [Example 39, N-{1-[4'-(2-Phenylthiazol-4-ylmethoxy)-biphenyl-4-yl]-ethyl}-N-hydroxy-acetamide] |  | 43 | 
17 | CC(c1ccc(-c2ccc(OCc3nc4ccccc4s3)cc2)c(F)c1)N(O)C(N)=O (stereo not drawn) [Example 40, 1-{1-[4'-(Benzothiazol-2-ylmethoxy)-2-fluoro(1,1'-biphenyl)-4-yl]ethyl}-1-hydroxy-urea] |  | 47 | 
18 | CCCc1c(OCCCCc2nnn[nH]2)ccc(C(C)=O)c1O [Ly-171,883, reference compound] |  |  | Kb [1, 3]: 36.3 nM
19 | O=S(=O)(Nc1cccc(OCc2ccc3ccccc3n2)c1)C(F)(F)F [Wy-48,252, reference compound] |  |  | Kb [1, 3]: 126 nM
